Read-outs that look alike come from different tables or passages of the source.
Legend:
[1] = Measurement of molar absorption coefficients ε365, ε313 and ε365/ε313 in acetonitrile; type: physicochemical
From the text: (Measurement and Evaluation of ε365 and ε365/ε313)
The ε365 and ε313 of the compound β are molar absorption coefficients measured by dissolving the compound β in acetonitrile. In a case where the compound β was insoluble in acetonitrile, a solvent for dissolving the compound β may be appropriately changed.

[2] = Measurement of pKa of compound β in ground state (acid titration); type: physicochemical
From the text: (Measurement of pKa of Compound β in Ground State)

[3] = molar absorption coefficient at 365 nm in acetonitrile

Compound: Cc1cc(C)c2c(C)cc(C)nc2c1 [2,4,5,7-Tetramethylquinoline]
- ε365 of Compound β [1, 3]: <10 (cm mol/L)^−1

Compound: c1ccc(-c2c3ccccc3nc3ccccc23)cc1 [Example 9-Phenylacridine, 9-Phenylacridine]
- ε365 of Compound β [1]: >10000
- ε365 of Compound β ([1]; molar absorption coefficient at 365 nm): >10000
- ε365 of Compound β [1, 3]: >10000 (cm mol/L)^−1

Compound: Cc1cc(C)c2ccccc2n1 [Example B12, 2,4-dimethylquinoline]
- ε365 of Compound β ([1]; molar absorption coefficient at 365 nm in acetonitrile, listed as 2,4-Dimethylquinoline): <10 (cm mol/L)^−1

Compound: c1ccc2nc3ccccc3cc2c1 [Example B3, acridine]
- pKa of Compound β in ground state [2]: 4.67
- pKa of Compound β in ground state ([2]; compound β alone): 4.67
- pKa of Compound β in ground state ([2]; compound β alone, ground state): 4.67
- pKa of Compound β in ground state ([2]; compound β in ground state): 4.67
- pKa of Compound β in ground state ([2]; compound β, ground state): 4.67
- pKa of Compound β in ground state ([2]; ground state): 4.67
- ε365 of Compound β [1, 3]: 4900 (cm mol/L)^−1

Compound: c1ccc2cnccc2c1 [Example B1, isoquinoline]
- pKa of Compound β in ground state [2]: 4.69
- pKa of Compound β in ground state ([2]; compound β alone): 4.69
- pKa of Compound β in ground state ([2]; compound β alone, ground state): 4.69
- pKa of Compound β in ground state ([2]; compound β in ground state): 4.69
- pKa of Compound β in ground state ([2]; compound β, ground state): 4.69
- pKa of Compound β in ground state ([2]; ground state): 4.69
- ε365 of Compound β [1, 3]: <10 (cm mol/L)^−1

Compound: CCCCc1ncc(C)c2ccccc12 [Example 1-n-Butyl-4-methylisoquinoline, 1-n-Butyl-4-methylisoquinoline]
- ε365 of Compound β [1, 3]: <10 (cm mol/L)^−1

Compound: c1ccncc1 [Example B11, pyridine]
- ε365 of Compound β [1, 3]: <10 (cm mol/L)^−1

Compound: Clc1ccccn1 [Example 2-Chloropyridine, 2-Chloropyridine]
- ε365 of Compound β [1, 3]: <10 (cm mol/L)^−1

Compound: Cc1cc(C)c2ccccc2n1 [2,4-Dimethylquinolme]
- ε365 of Compound β [1, 3]: <10 (cm mol/L)^−1

Compound: Nc1ccncc1 [Example 4-Aminopyridine, 4-Aminopyridine]
- ε365 of Compound β [1, 3]: <100 (cm mol/L)^−1

Compound: c1ccc2ncccc2c1 [Example B2, quinoline]
- pKa of Compound β in ground state [2]: 4.15
- pKa of Compound β in ground state ([2]; compound β alone): 4.15
- pKa of Compound β in ground state ([2]; compound β alone, ground state): 4.15
- pKa of Compound β in ground state ([2]; compound β in ground state): 4.15
- pKa of Compound β in ground state ([2]; compound β, ground state): 4.15
- pKa of Compound β in ground state ([2]; ground state): 4.15
- ε365 of Compound β [1, 3]: <10 (cm mol/L)^−1

Compound: COc1cc(C)nc2ccccc12 [Example 2-Methyl-4-methoxyquinoline, 2-Methyl-4-methoxyquinoline]
- ε365 of Compound β [1, 3]: <10 (cm mol/L)^−1

Compound: Cc1nccc2ccccc12 [Example B6, 1-Me-isoquinoline]
- ε365 of Compound β [1, 3]: <10 (cm mol/L)^−1

Compound: Cc1c2ccccc2nc2ccccc12 [Example 9-Methylacridine, 9-Methylacridine]
- ε365 of Compound β [1, 3]: 6300 (cm mol/L)^−1

Compound: CCCCc1nccc2ccccc12 [Example 1-n-Butylisoquinoline, 1-n-Butylisoquinoline]
- ε365 of Compound β [1, 3]: <10 (cm mol/L)^−1

From patent publication US20230059487A1, “PHOTOSENSITIVE MATERIAL, TRANSFER FILM, MANUFACTURING METHOD OF CIRCUIT WIRING, MANUFACTURING METHOD OF TOUCH PANEL, AND PATTERN FORMING METHOD” (FUJIFILM Corporation, priority 2020, published 2023)
